The text below walks through data of PubChem BioAssay (NCI).

Test in all cases: DTP human tumour cell line panel, 48 h
Assay [1] concerns BT-549 breast.
Assay [2] deals with MDA-MB-231 breast.
In assay [3] the test system is MCF7 breast.
The subject of assay [4] is HS 578T breast.

Several values for one entry are separate records, joined by “and”; a condition that tells them apart may be missing. Identical values can stand only once.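 All cell lines were grown in 96-well plates and treated with compound for 48 hours. At the GI50, growth is halved. TGI denotes the concentration required for complete inhibition of growth.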

Turning to `COc1cc2c(cc1OCCCN1CCN(CCCOc3cc4c(cc3OC)C(=O)N3C[C@H](F)C[C@H]3C=N4)CC1)N=C[C@@H]1C[C@@H](F)CN1C2=O`, the GI50 (usually the concentration that inhibits growth by half) in assay [1] was 0.113 µM; in assay [2], 0.116 µM; in assay [3] it was below 0.0195 µM; in assay [4], 0.0841 µM. The TGI – broadly, the concentration giving total growth inhibition – in assay [1] is 0.464 µM; in assay [2], 0.852 µM; in assay [3], above 32.7 µM; in assay [4], 2.56 µM.
As for `COc1cc(/C=C/C(=O)c2cccc(-n3cc(-c4ccccc4)[nH]c3=O)c2)ccc1O`, the GI50 is 2.91 µM in assay [1], 3.36 µM in assay [2], 1.94 µM in assay [3] and 3.09 µM in assay [4]. Besides, the TGI in assay [1] is 14.7 µM; in assay [2], 15.2 µM; in assay [3], 6.65 µM; in assay [4], 18.6 µM.
On to `NC(=O)c1c(NC(=O)c2ccc(C(F)(F)F)cc2Cl)sc2c1CCC(=O)C2`, for which the concentration for 50% growth inhibition (GI50) was 0.294 µM in assay [1], 0.279 µM in assay [3] and 0.368 µM in assay [4]. Further, the concentration for total growth inhibition (TGI) was found to be 1.91 µM in assay [1], 4.08 µM in assay [3] and 5.94 µM in assay [4].
As to `O=NN(CC(=O)NNc1ccccc1)CC(=O)NNc1ccccc1`, the GI50 was above 28.7 µM in assay [1], 3.54 µM in assay [2], 8.13 µM in assay [3] and above 100 µM in assay [4]. In addition, the TGI in assay [1], in assay [2], in assay [3] and in assay [4] was above 100 µM each time.
As for `N#C/C(=C\c1ccccn1)c1nc2ccccc2o1`, the GI50 in assay [1] was 17.3 µM; in assay [2] it was 27.9 µM; in assay [3], 16 µM; in assay [4], 35.1 µM. The TGI in assay [1] was 36.1 µM; in assay [2] it was above 100 µM; in assay [3] it was above 100 µM; in assay [4], above 100 µM.
On to `O=C1CC[C@@H]2[C@H]3CCC(=O)c4c3c(c3cccc(O)c3c4O)O[C@@]23C(=O)c2cccc(O)c2C(O)=C13`, for which the GI50 in assay [1], in assay [2], in assay [3] and in assay [4] was above 100 µM in each case. For the same compound, the TGI in assay [1], in assay [2], in assay [3] and in assay [4] was above 100 µM in each case.
Take `Nc1ccccc1SC(CC(=O)c1ccccc1)c1c(Cl)cccc1Cl` (stereo not given): the GI50 in assay [1] is 3.46 µM; in assay [2] it was 3.86 µM; in assay [3] it was 1.25 µM; in assay [4], 4.48 µM. For the same compound, the TGI turned out to be 13.3 µM in assay [1], 20.4 µM in assay [2], 13.1 µM in assay [3] and 49.5 µM in assay [4].
Take `COc1ccc(C(=O)c2no[n+]([O-])c2C(=O)c2ccc(OC)cc2)cc1`: the GI50 is 4.84 µM in assay [1], 2.77 µM in assay [2], 4.42 µM in assay [3] and 17.8 µM in assay [4]. Further, the TGI is 17.2 µM in assay [1], 8.16 µM in assay [2], 18.2 µM in assay [3] and 51.4 µM in assay [4].
In the case of `O=C1c2ccccc2-n2c1nc1ccc([N+](=O)[O-])cc1c2=O`, the TGI in assay [1] is above 100 µM; in assay [2], above 100 µM; in assay [3], 24.4 µM; in assay [4] it was above 100 µM.
In the case of `Cc1nc2sc(C(=O)Nc3cccc4c3OCCO4)c(N)c2cc1C(C)O` (stereo not given), the GI50 in assay [2] is 36.3 µM; in assay [3], 2.11 µM; in assay [4], 3.07 µM. For the same compound, the TGI in assay [2], in assay [3] and in assay [4] was above 100 µM throughout.
In the case of `O=C(Nc1cccc2[nH]c(C(F)(F)F)nc12)c1ccc(Br)cc1F`, the GI50 in assay [1] is 3.01 µM; in assay [2], 2.17 µM; in assay [3], 2.5 µM; in assay [4], 3.54 µM. The total growth inhibition concentration (TGI) in assay [1] is 10.3 µM; in assay [2], 6.19 µM; in assay [3], 15 µM; in assay [4], 22.8 µM.
For `O=[N+]([O-])c1cc2c(ccc3ccccc32)o1`, the GI50 in assay [2] is 0.442 µM; in assay [3] it was 0.212 µM; in assay [4] it was 1.4 µM. In addition, the figures for the TGI in assay [2], in assay [3] and in assay [4] were 2.89 µM, 3.01 µM and 5.28 µM, respectively.
With `CN(COC(=O)C(C)(C)C)c1nc(N(C)COC(=O)C(C)(C)C)nc(N(C)COC(=O)C(C)(C)C)n1`, the TGI was above 100 µM in assay [1], 68.9 µM in assay [2], above 100 µM in assay [3] and above 100 µM in assay [4].
Consider `COc1ccc(/C(=N/O)c2cc(F)c(F)c(OC)c2F)cc1O`, for which the GI50 is 2.46 µM in assay [2], 0.329 µM in assay [3] and 0.938 µM in assay [4]. Besides, the TGI in assay [2], in assay [3] and in assay [4] was above 100 µM in each case.
Turning to `CCOC(=O)c1c(C)n(Cc2ccc(Cl)cc2Cl)c2c1cc(O)c1[nH]c(Cc3ccccc3)nc12`, the GI50 in assay [1] was 2.77 µM; in assay [2], 3.61 µM; in assay [3] it was 3.24 µM; in assay [4], 1.53 µM. Besides, the TGI in assay [1] stood at 7.02 µM; in assay [2], 12.5 µM; in assay [3], 10.1 µM; in assay [4] it was 3.8 µM.
As to `COc1cc(/C=C2\CC3C4CC=C5C[C@@H](N6CCCC6)CC[C@]5(C)C4CC[C@]3(C)[C@H]2OC(C)=O)ccc1OCCCn1ccnc1` (stereo not given in full), the GI50 was 2.19 µM in assay [1], 0.404 µM in assay [2], 1.14 µM in assay [3] and 5.76 µM in assay [4]. In addition, the total growth inhibition concentration (TGI) is 9.72 µM in assay [1], 1.01 µM in assay [2], above 21.8 µM in assay [3] and 16.4 µM in assay [4].
On to `CCc1n(Cc2ccc3ccccc3c2)cc[n+]1Cc1ccc2ccccc2c1`, for which the GI50 in assay [1] is 0.674 µM; in assay [2], 0.392 µM; in assay [3], 0.384 µM; in assay [4] it was 1.5 µM. In addition, the TGI in assay [1] turned out to be 2.12 µM; in assay [2], 1.44 µM; in assay [3] it was 1.8 µM; in assay [4], 5.62 µM.
For `O=C1C=CC(=O)N1c1ccc2ccccc2c1`, the GI50 in assay [1] is 14.3 µM; in assay [2], 16.1 µM; in assay [3], 16.6 µM; in assay [4], 14.4 µM. Also, the TGI came to 27.8 µM in assay [1], 33 µM in assay [2], 41.4 µM in assay [3] and 53.4 µM in assay [4].
Regarding `Cc1ncc2c(n1)CCC1=C2OS(=O)(=O)CC1N(C)C` (stereo not given), the TGI in assay [1], in assay [2], in assay [3] and in assay [4] was above 100 µM each time.
For the compound `O=C(Nc1ccc(Br)cc1)c1cc(Br)ccc1O`, the GI50 is 0.327 µM and 0.724 µM in assay [1]; 0.622 µM and 1.43 µM in assay [2]; 0.412 µM and 1.29 µM in assay [3]; 0.302 µM and 0.455 µM in assay [4]. Further, the TGI is 2.12 µM and 3.03 µM in assay [1]; 3.22 µM and 7.06 µM in assay [2]; 3.37 µM and 7.8 µM in assay [3]; 2.94 µM in assay [4].
Regarding `CC(C)C[C@H](NC(=O)[C@@H](N)Cc1cccc2ccccc12)B(O)O`, the GI50 in assay [1] is 0.87 µM; in assay [2] it was 0.798 µM; in assay [3], 0.389 µM. This compound also returned a TGI in assay [3] of 50 µM.
For the compound `CCOC(=O)CCC(NC(=O)c1ccc(Oc2nc3cc(N)cc(N)c3nc2-c2ccccc2)cc1)C(=O)OCC` (stereo not given), the GI50 is 33.7 µM in assay [1], 11.3 µM in assay [2], 53.6 µM in assay [3] and 43.7 µM in assay [4]. For the same compound, the TGI in assay [1] is above 100 µM; in assay [2], 32.6 µM; in assay [3] it was above 100 µM; in assay [4] it was above 100 µM.
Regarding `Cc1nc2ccccc2c(/C=C/c2ccc(F)cc2)c1C(=O)/C=C/c1ccccc1`, the GI50 is 2.98 µM in assay [1], 2.24 µM in assay [2], 2.08 µM in assay [3] and 5.15 µM in assay [4]. Further, the TGI in assay [1] is 13.6 µM; in assay [2] it was 6.33 µM; in assay [3] it was above 100 µM; in assay [4], above 100 µM.
On to `Cc1ccc(S(=O)(=O)NC(=O)Nc2ncn[nH]2)cc1`, for which the TGI in assay [1], in assay [2], in assay [3] and in assay [4] was above 100 µM each time.
With `Cc1nc2ccccc2c(/C=C/c2ccc(C(F)(F)F)cc2)c1C(=O)/C=C/c1ccccc1`, in assay [2], the GI50 was 1.74 µM and the TGI amounted to 3.65 µM. Also, in assay [4], the GI50 is 1.92 µM and the concentration for total growth inhibition (TGI) is 5.75 µM.
For the compound `Cc1c(C(=O)Nc2ccc(Oc3ccnc4cc(OCC(C)(C)O)ccc34)c(F)c2)c(=O)n(-c2ccccc2)n1C`, in assay [1], the GI50 is 4.53 µM and the TGI is above 100 µM. In assay [4], the GI50 was 3.04 µM and the TGI was above 100 µM.
With `O=C(O)CC(CC(=O)O)n1cccc1`, the TGI in assay [1], in assay [2] and in assay [3] was above 100 µM in each case.
